According to ChEMBL document CHEMBL4041507, “Design, synthesis and biological evaluation of [1,2,4]triazolo[1,5-a]pyrimidines as potent lysine specific demethylase 1 (LSD1/KDM1A) inhibitors” (Eur J Med Chem, 2017):
Activity calls are given as the source filed them. The rule behind the calls is not given here.

Assays:
[1] = molecular target: Lysine-specific histone demethylase 1A (Homo sapiens, UniProt O60341)
Description: Inhibition of recombinant human LSD1 (157 to 852 residues) expressed in Escherichia coli BL21(DE3) using H3K4me2 as substrate preincubated for 1 hr followed by substrate addition by fluorescence assay

MGC-803 [2] = test: cells; details: Homo sapiens, MGC-803, read-out: GI
Description: Cytotoxicity against human MGC803 cells assessed as growth inhibition at 10 uM by MTT assay relative to control

ECa-109 cell line [3] = test: cells; details: Homo sapiens, ECa-109, read-out: GI
Description: Cytotoxicity against human EC109 cells assessed as growth inhibition at 10 uM by MTT assay relative to control

A549 [4] = test: cells; details: Homo sapiens, A549, read-out: GI
Description: Cytotoxicity against human A549 cells assessed as growth inhibition at 10 uM by MTT assay relative to control

PC-9 [5] = test: cells; details: Homo sapiens, PC-9, read-out: GI
Description: Cytotoxicity against human PC9 cells assessed as growth inhibition at 10 uM by MTT assay relative to control

PC-9 [6] = test: cells; details: Homo sapiens
Description: Cytotoxicity against human PC9 cells assessed as growth inhibition by MTT assay

A549 [7] = test: cells; details: Homo sapiens
Description: Cytotoxicity against human A549 cells assessed as growth inhibition by MTT assay

MGC-803 [8] = test: cells; details: Homo sapiens
Description: Cytotoxicity against human MGC803 cells assessed as growth inhibition by MTT assay

ECa-109 cell line [9] = test: cells; details: Homo sapiens
Description: Cytotoxicity against human EC109 cells assessed as growth inhibition by MTT assay

PC-9 [10] = test: Potency index, ratio of 5-fluorouracil IC50 to compound IC50 for human PC9 cells; assay type: functional
MGC-803 [11] = test: Anti-migratory activity against human MGC803 cells at 10 uM after 24 hrs by Hoechst 33258 staining based transwell assay relative to control; assay type: functional; details: MGC-803, 24 h
MGC-803 [12] = test: Anti-migratory activity against human MGC803 cells after 24 hrs by Hoechst 33258 staining based transwell assay; assay type: functional, cell-based
MGC-803 [13] = test: Effect on E-cadherin expression in human MGC803 cells at 5 to 10 uM after 24 hrs by Western blot method; assay type: functional, cell-based
MGC-803 [14] = test: Effect on N-cadherin expression in human MGC803 cells at 5 to 10 uM after 24 hrs by Western blot method; assay type: functional, cell-based
PC-9 [15] = test: Anti-migratory activity against human PC9 cells after 24 hrs by Hoechst 33258 staining based transwell assay; assay type: functional, cell-based
PC-9 [16] = test: Increase in E-cadherin expression in human PC9 cells at 5 to 10 uM after 24 hrs by Western blot method; assay type: functional, cell-based
PC-9 [17] = test: Decrease in N-cadherin expression in human PC9 cells at 5 to 10 uM after 24 hrs by Western blot method; assay type: functional, cell-based

SMILES | IC50 [1] | inhibition of growth at 10 µM (MGC-803 [2]) | inhibition of growth at 10 µM (ECa-109 cell line [3]) | inhibition of growth at 10 µM (A549 [4]) | inhibition of growth at 10 µM (PC-9 [5]) | IC50 (PC-9 [6]) | IC50 (A549 [7]) | IC50 (MGC-803 [8]) | IC50 (ECa-109 cell line [9]) | Ratio IC50 (PC-9 [10]) | inhibition at 10 µM (MGC-803 [11]) | Activity (MGC-803 [12]) | Activity (MGC-803 [13]) | Activity (MGC-803 [14]) | Activity (PC-9 [15]) | Activity (PC-9 [16]) | Activity (PC-9 [17])
Cc1cc(NNC(=O)c2cnccn2)n2nc(SCc3ccccc3)nc2n1 | 1.19 µM | 35.3% | 23.3% | 40.9% | 63.2% | 12.7 µM | – | – | – | – | – | – | – | – | – | – | –
Cc1cc(Nc2ccc(F)cc2)n2nc(SCc3nc4ccccc4[nH]3)nc2n1 | > 10 µM | 19.2% | 39.7% | 36.6% | 27.6% | – | – | – | – | – | – | – | – | – | – | – | –
Cc1cc(NCCCN2CCOCC2)n2nc(SCc3ccccc3)nc2n1 | > 10 µM | 24.9% | 9.3% | 49.2% | 51.9% | 15 µM | 17 µM | – | – | – | – | – | – | – | – | – | –
Cc1cc(Nc2ccc(C#N)cc2)n2nc(SCc3nc4ccccc4[nH]3)nc2n1 | > 10 µM | 19.3% | 26.3% | 52.3% | 41.9% | – | 13.9 µM | – | – | – | – | – | – | – | – | – | –
O=C(O)c1ccc(CN2CCC(CN[C@@H]3C[C@H]3c3ccccc3)CC2)cc1 [GSK2879552] | 0.024 µM | – | – | – | – | – | – | > 50 µM | > 50 µM | – | – | – | – | – | – | – | –
Cc1cc(N)n2nc(SCc3ccccc3)nc2n1 | > 10 µM | 32.3% | 4.7% | 57.3% | 48.3% | 8.14 µM | 9.74 µM | – | – | – | – | – | – | – | – | – | –
COc1cc(Nc2cc(C)nc3nc(SCc4ccccc4)nn23)cc(OC)c1OC | > 10 µM | 32.8% | 41.6% | 37.9% | 13.5% | – | – | – | – | – | – | – | – | – | – | – | –
Cc1cc(Nc2cccc3c2CN(C2CCC(=O)NC2=O)C3=O)n2nc(SCc3nc4ccccc4[nH]3)nc2n1 (stereo not drawn) | > 10 µM | 11.4% | 32.2% | 48.2% | 52.4% | 15 µM | 19.8 µM | – | – | – | – | – | – | – | – | – | –
COc1cc(/C=C/C(=O)c2ccc(Nc3cc(C)nc4nc(SCc5nc6ccccc6[nH]5)nn34)cc2)cc(OC)c1OC | > 10 µM | 81.3% | 76.4% | 71.6% | 93.1% | 0.57 µM | 8.79 µM | 2.46 µM | 3.23 µM | 4 | – | – | – | – | – | – | –
Cc1cc(Nc2ccccc2)n2nc(SCc3nc4ccccc4[nH]3)nc2n1 | > 10 µM | 17.9% | 39.9% | 38% | 31.6% | – | – | – | – | – | – | – | – | – | – | – | –
O=c1[nH]cc(F)c(=O)[nH]1 [FLUOROURACIL] | – | – | – | – | – | 1.99 µM | 14 µM | 10.1 µM | 26 µM | – | – | – | – | – | – | – | –
CCC1(c2ccc(Nc3cc(C)nc4nc(SCc5nc6ccccc6[nH]5)nn34)cc2)CCC(=O)NC1=O (stereo not drawn) | > 10 µM | 1.1% | 38.2% | 49.2% | 47.9% | 12.2 µM | 17.5 µM | – | – | – | – | – | – | – | – | – | –
Cc1cc(Nc2ccc(C(=O)O)cc2)n2nc(SCc3ccccc3)nc2n1 | > 10 µM | 26.7% | 14.3% | 34.6% | 30.7% | – | – | – | – | – | – | – | – | – | – | – | –
Cc1cc(NNC(N)=S)n2nc(SCc3ccccc3)nc2n1 | 0.154 µM | 2.1% | 14.2% | 25.6% | 30.7% | – | – | – | – | – | 21% | Dose-dependent effect | inactive | inactive | Dose-dependent effect | Active | Active
Cc1cc(Nc2ccc(Cl)cc2)n2nc(SCc3nc4ccccc4[nH]3)nc2n1 | > 10 µM | 16.8% | 41.2% | 34.9% | 33.2% | – | – | – | – | – | – | – | – | – | – | – | –
Cc1cc(Nc2ccc(F)cc2)n2nc(SCc3ccccc3)nc2n1 | > 10 µM | 19.7% | 37.6% | 41.8% | 43.5% | – | – | – | – | – | – | – | – | – | – | – | –

SMILES | IC50 [1] | inhibition of growth at 10 µM (MGC-803 [2]) | inhibition of growth at 10 µM (ECa-109 cell line [3]) | inhibition of growth at 10 µM (A549 [4]) | inhibition of growth at 10 µM (PC-9 [5]) | IC50 (PC-9 [6]) | IC50 (A549 [7]) | IC50 (MGC-803 [8]) | IC50 (ECa-109 cell line [9]) | Ratio IC50 (PC-9 [10]) | inhibition at 10 µM (MGC-803 [11]) | Activity (MGC-803 [12]) | Activity (MGC-803 [13]) | Activity (MGC-803 [14]) | Activity (PC-9 [15]) | Activity (PC-9 [16]) | Activity (PC-9 [17])
Cc1cc(N2CCN(CCO)CC2)n2nc(SCc3ccccc3)nc2n1 | > 10 µM | 23.8% | 5.9% | 42.1% | 14.9% | – | – | – | – | – | – | – | – | – | – | – | –
Cc1cc(Nc2ccc(C(=O)/C=C/c3cccs3)cc2)n2nc(SCc3nc4ccccc4[nH]3)nc2n1 | > 10 µM | 29.6% | 38.3% | 51.1% | 40.4% | 11 µM | 9.9 µM | 7.88 µM | 10.6 µM | – | – | – | – | – | – | – | –
Cc1cc(NCCCn2ccnc2)n2nc(SCc3ccccc3)nc2n1 | > 10 µM | 26.2% | 12.8% | 50.2% | 47.7% | 12.3 µM | 16.1 µM | – | – | – | – | – | – | – | – | – | –
Cc1ccc(Nc2cc(C)nc3nc(SCc4ccccc4)nn23)cc1 | > 10 µM | 26% | 44.7% | 33.7% | 30.2% | – | – | – | – | – | – | – | – | – | – | – | –
Cc1ccc(Nc2cc(C)nc3nc(SCc4nc5ccccc5[nH]4)nn23)cc1 | > 10 µM | 22.9% | 43.1% | 35.1% | 36.9% | – | – | – | – | – | – | – | – | – | – | – | –
Cc1cc(NCCc2c[nH]c3ccccc23)n2nc(SCc3ccccc3)nc2n1 | > 10 µM | 34.2% | 7% | 43.9% | 24% | – | – | – | – | – | – | – | – | – | – | – | –
Cc1cc(N2CCNCC2)n2nc(SCc3ccccc3)nc2n1 | > 10 µM | 32.4% | 23.9% | 41.4% | 29.3% | – | – | – | – | – | – | – | – | – | – | – | –
Cc1cc(NNC(=O)c2cnccn2)n2nc(SCc3nc4ccccc4[nH]3)nc2n1 | 0.557 µM | 8.6% | 35.5% | 65.2% | 52.5% | 12.3 µM | 10.3 µM | – | – | – | – | – | – | – | – | – | –
Cc1cc(Nc2ccccc2)n2nc(SCc3ccccc3)nc2n1 | > 10 µM | 35% | 12.9% | 50.2% | 40.2% | – | 16.4 µM | – | – | – | – | – | – | – | – | – | –
Cc1cc(Nc2ccc(C(=O)O)cc2)n2nc(SCc3nc4ccccc4[nH]3)nc2n1 | > 10 µM | 0.4% | 4.5% | 5.6% | 11.9% | – | – | – | – | – | – | – | – | – | – | – | –
Cc1cc(NCCCO)n2nc(SCc3ccccc3)nc2n1 | > 10 µM | 33.3% | 6.3% | 53.7% | 51.4% | 10.7 µM | 8.85 µM | – | – | – | – | – | – | – | – | – | –
COc1cc(Nc2cc(C)nc3nc(SCc4nc5ccccc5[nH]4)nn23)cc(OC)c1OC | > 10 µM | 28% | 34.1% | 52.4% | 42.9% | – | 18 µM | – | – | – | – | – | – | – | – | – | –
Cc1cc(Nc2ccc(Br)cc2)n2nc(SCc3nc4ccccc4[nH]3)nc2n1 | > 10 µM | 36.7% | 43.8% | 35.2% | 36.4% | – | – | – | – | – | – | – | – | – | – | – | –
Cc1cc(N2CCC(N3CCCCC3)CC2)n2nc(SCc3ccccc3)nc2n1 | > 10 µM | 32.8% | 0.3% | 56.5% | 35.6% | – | 8.87 µM | – | – | – | – | – | – | – | – | – | –
Cc1cc(N2CCOCC2)n2nc(SCc3ccccc3)nc2n1 | > 10 µM | 31% | 10.6% | 45.4% | 27.3% | – | – | – | – | – | – | – | – | – | – | – | –
Cc1cc(OCCN2CCCC2)n2nc(SCc3ccccc3)nc2n1 | > 10 µM | 28.8% | 11.4% | 49.8% | 43.6% | – | 22.8 µM | – | – | – | – | – | – | – | – | – | –
